# Measured values published in patent US4499107A, “Method for treating infected renal calculosis” (Dr. L^o. Zambeletti, S.p.A., priority 1981, dated 1985).
# Like-named read-outs stand apart in the source and are kept apart here.
# Legend:
# [1] = Acute toxicity; details: mouse, in vivo
# [2] = design: species or system "Wistar" rats; details: rat, in vivo, po, 200 mg/kg
# Experimental: Subacute toxicity. A test lasting 4 weeks has been carried out on the two compounds administered at the dose of 200 mg/kg by oral route to groups of "Wistar" rats, 8 males and 8 females, with daily observation of the behavior, of health status, of feed and water consumption and, twice a week, of the body weight of animals. At the end of 4 weeks the animals have been sacrificed and autopsy and haematological and haematochemical examinations have been performed on them. For all the duration of the test, no anomaly has been noticed in the behavior of both AHA-treated and PHA-treated animals.
# [3] = rabbit, in vivo; for duration of the reduction of the arterial pressure: po, 100 mg/kg
# [4] = test system: mouse embryonal cell cultures; details: 1,1.10^-4 M; cited from earlier work
# [5] = test system: chinese hamster embryonal cell cultures; details: 1,1.10^-4 M; cited from earlier work
# [6] = pregnant female rats, 12th day of pregnancy, cited from earlier work
# [7] = test system: urease-producing bacteria; details: renal lithiasis sustained by urease-producing bacteria; cited from earlier work
# [8] = test system: Salmonella typhimurium (TA 100 and TA 98); details: strains TA 100 and TA 98, 40,000 μg/plate; cited from earlier work
# [9] = Teratogenesis in pregnant female rats
# [10] = test system: chinese hamster embryonal cell cultures; assay: Mutagenesis: morphological changes of the chromosomes in embryonal cell cultures; type: cell-based; details: 1.1 10^-4 M, 24-72 hours of incubation
# Source text: (§1) Mutagenesis. As far as AHA is concerned, it has been previously reported. […] The propionhydroxamic acid is non mutagenic also in the Ames test.
# [11] = test system: mouse embryonal cell cultures; assay: as above; type: cell-based; details: 1.1 10^-4 M, 24-72 hours of incubation
# Source text: as §1
# [12] = test system: Salmonella typhimurium (TA 100 and TA 98); assay: Ames test; type: cell-based
# Experimental: In the Belgian Pat. No. 878,836, Jan. 16, 1980, it is moreover reported that AHA is mutagenic according to the Ames test on two strains of Salmonella typhimurium (TA 100 and TA 98), at the dose of 40,000 μg/plate.
# as §1
# [13] = test system: urinary infection caused by urease-producing bacteria; type: in vivo, patient
# Source text: The results shown above, pointing out a globally superimposable behavior of AHA and PHA, with the exclusion of the fundamental aspects of the mutagenesis and of the theratogenesis, which are absent in propionhydroxamic acid, prompted to test this latter compound on some clinical cases, hereunder reported. (1) Urinary infection caused by urease-producing bacteria; (2) relapsing renal calculosis.
# [14] = rat, in vivo, ip, 300 mg/kg
# [15] = Case 1, 500 mg/die combined with antibiotic therapy
# [16] = Case 2, 375 mg/die combined with antibiotic therapy
# [17] = Case 4, 500 mg/die with antibiotic therapy, after 3 months
# [18] = Case 5, 500 mg/die with antibiotic therapy
smiles,measurement,setting,value
"CC(=O)NO [AHA, acetohydroxamic acid, reference compound]",LD50,[1]; po,2740 mg/kg
same,"autoptical examination of the main organs (thymus, testes, heart, liver)",[2],hypotrophy of the main organs
same,behavior of animals,[2],no anomaly
same,feed consumption,[2],decrease
same,"haematochemical parameters, AHA versus PHA",[2],No remarkable differences
same,macroscopic lesion of the main organs,[2],no macroscopic lesion
same,reduction of the mean arterial pressure,[3]; 50 mg/kg,15%
same,time after administration at which the reduction of mean arterial pressure is still present,[3]; 50 mg/kg,≥ 120 min
same,duration of the reduction of the arterial pressure,[3],> 120 min
same,morphological changes of the chromosomes provoked by damages at DNA,[4],causes morphological changes of the chromosomes
same,morphological changes of the chromosomes provoked by damages at DNA,[5],causes morphological changes of the chromosomes
same,fetuses with deformations,[6]; i.p. 750 mg/kg una tantum,50%
same,deaths of fetuses,[6]; i.p. 1000 mg/kg una tantum,55%
same,deformations in the survived fetuses,[6]; i.p. 1000 mg/kg una tantum,100%
same,reabsorption of fetuses,[6]; i.p. 1500 mg/kg una tantum,100%
same,drug's action on urinary ammonium and urinary pH,[7],decrease of urinary ammonium and urinary pH
same,mutagenicity in the Ames test,[8],mutagenic
same,dead fetuses (comparison value),[9]; dose for AHA not stated at this place,50%
"CCC(=O)NO [PHA, propionhydroxamic acid]",LD50,"[1]; oral route, confidence limits in brackets",2370 mg/kg
same,"autoptical examination of the main organs (thymus, testes, heart, liver)",[2],hypotrophy of the main organs
same,behavior of animals,[2],no anomaly
same,feed consumption,[2],decrease
same,"haematochemical parameters, AHA versus PHA",[2],No remarkable differences
same,macroscopic lesion of the main organs,[2],no macroscopic lesion
same,morphologic change of the chromosomes provoked by damages at DNA,[10],did not induce
same,morphologic change of the chromosomes provoked by damages at DNA,[11],did not induce
same,mutagenicity in the Ames test,[12],non mutagenic
same,urinary ammonium values,[13]; [15],normalization
same,urinary pH,[13]; [15],normalization
same,urinary cultures,"[13]; Case 1, 500 mg/die combined with antibiotic therapy, Proteus mirabilis",sterilization of urinary cultures
same,effect of temporary interruption of the drug,"[13]; Case 2, 375 mg/die",reapparence of urease producing bacteria (Klebsiella)
same,urinary ammonium values,[13]; [16],decrease of urinary ammonium values
same,urinary infection,[13]; [16],resolution of urinary infection
same,urinary acidification,"[13]; Case 2, 375 mg/die combined with antibiotic therapy, Proteus mirabilis and Klebsiella",sufficient urinary acidification
same,volumetric increase of the lithiasic relapse,"[13]; Case 2, 375 mg/die, during 5 months' therapy",not observed
same,lithiasic relapse at the left kidney,[13]; Case 3,Absence of lithiasic relapse
same,crystalluria,"[13]; Case 3, combination",non pathologic crystalluria
same,urinary ammonium,"[13]; Case 3, combination, Proteus mirabilis",normalization
same,lithiasic relapse at the left kidney,"[13]; Case 4, 500 mg/die",no lithiasic relapse
same,crystalluria,[13]; [17],normalization
same,urinary pH,[13]; [17],normalization
same,ammonium values,"[13]; Case 4, 500 mg/die with antibiotic therapy, after 3 months, Proteus mirabilis and Klebsiella",normalization
same,growth of the already present lithiasic formation,[13]; [18],stopping of the growth
same,onset of further relapses,[13]; [18],lacking onset of further relapses
same,urinary infection,[13]; [18],resolution of urinary infection
same,urinary pH,[13]; [18],normalization
same,urinary ammonium,"[13]; Case 5, 500 mg/die with antibiotic therapy, Proteus mirabilis",normalization
same,blood pressure,[3]; 50 mg/kg,does not change
same,heart rate,[3]; 50 mg/kg,does not change
same,duration of the reduction of the arterial pressure,[3],10 to 30 min
same,morphological development of the survived fetuses,[14],perfectly normal development
same,dead fetuses,"[9]; intraperitoneal, once on the 13th day of pregnancy, 300 mg/kg",55%
